Values joined by “and” are separate entries in the source; they are usually repeats but may differ in a detail not shown here. Identical values can stand only once.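 Briefly, cells in 96-well plates were exposed to five compound concentrations for 48 h, and endpoints were estimated by linear interpolation. The concentration for 50% growth inhibition is given as GI50. The concentration for full growth arrest is given as TGI.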
Tests used:
Test in all cases: DTP human tumour cell line panel, 48 h
KM12 colon = system: KM12 colon
SW-620 colon = system: SW-620 colon
NCI-H522 lung = system: NCI-H522 lung
M14 melanoma = system: M14 melanoma
OVCAR-4 ovarian = system: OVCAR-4 ovarian
MALME-3M melanoma = system: MALME-3M melanoma
K-562 leukemia = system: K-562 leukemia
PC-3 prostate = system: PC-3 prostate
CCRF-CEM leukemia = system: CCRF-CEM leukemia
T-47D breast = system: T-47D breast

CCCCCCCCC/C=C/C=C/C(=O)NCC(=O)NC1C(O)C(O)C(Nc2ncnc3nc[nH]c23)OC1C(O)CO (stereo unspecified) was tested, and the GI50 (KM12 colon) was 0.0013 µM, the TGI (KM12 colon) was 0.608 µM and the GI50 (SW-620 colon) was 0.00284 µM. The TGI (SW-620 colon) was 0.112 µM, the GI50 (NCI-H522 lung) was 0.00453 µM and the TGI (NCI-H522 lung) was 0.0758 µM and 0.277 µM. For the same molecule, the GI50 (M14 melanoma) was 0.0248 µM, the TGI (M14 melanoma) was 0.143 µM and 1.22 µM and the GI50 (OVCAR-4 ovarian) was 0.00022 µM. It also gave a TGI (OVCAR-4 ovarian) of 0.0515 µM, a GI50 (MALME-3M melanoma) of 0.00446 µM and a TGI (MALME-3M melanoma) of 0.381 µM. It also gave a GI50 (K-562 leukemia) of 0.36 µM, a TGI (K-562 leukemia) greater than 100 µM and a TGI (PC-3 prostate) of 0.00787 µM.
Work on O=C(c1cccs1)N(C(=S)OC12CC3CC(CC(C3)C1)C2)c1ccccc1 yielded a TGI (KM12 colon) greater than 100 µM, a TGI (SW-620 colon) greater than 100 µM and a TGI (CCRF-CEM leukemia) of 52.1 µM. It also gave a TGI (NCI-H522 lung) of 46 µM, a TGI (M14 melanoma) of 43 µM and a TGI (OVCAR-4 ovarian) greater than 100 µM. For the same molecule, the TGI (MALME-3M melanoma) was greater than 100 µM, the TGI (T-47D breast) was greater than 100 µM and the TGI (K-562 leukemia) was greater than 100 µM. It also gave a TGI (PC-3 prostate) of 88.5 µM.
For COc1cccc2c1Cc1cc(-c3ccccc3)[n+](C)n1-2, the TGI (KM12 colon) was 34.3 µM, the TGI (SW-620 colon) was greater than 100 µM and the TGI (CCRF-CEM leukemia) was 9.69 µM. For the same molecule, the TGI (NCI-H522 lung) was greater than 100 µM, the TGI (M14 melanoma) was 24.9 µM and the TGI (OVCAR-4 ovarian) was 14.5 µM. The TGI (MALME-3M melanoma) was 25.6 µM, the TGI (T-47D breast) was 17.7 µM and the TGI (K-562 leukemia) was greater than 100 µM. For the same molecule, the TGI (PC-3 prostate) was 89.7 µM.
With NCCSC(c1ccccc1)c1ccccc1 the TGI (KM12 colon) was 35.6 µM, the TGI (SW-620 colon) was 37.9 µM and the TGI (CCRF-CEM leukemia) was greater than 100 µM. It also gave a TGI (NCI-H522 lung) of 38.4 µM, a TGI (M14 melanoma) of 29.9 µM and a TGI (OVCAR-4 ovarian) of 46.8 µM. It also gave a TGI (MALME-3M melanoma) of 37.1 µM and a TGI (PC-3 prostate) of 55.6 µM.
In the case of Nc1nc(SCCc2ccccc2)nc2nc3c(c(-c4ccccc4)c12)CCCC3, the TGI (KM12 colon) is reported as greater than 100 µM, the TGI (SW-620 colon) is reported as greater than 100 µM and the TGI (CCRF-CEM leukemia) is reported as greater than 100 µM. It also gave a TGI (M14 melanoma) greater than 100 µM, a TGI (OVCAR-4 ovarian) greater than 100 µM and a TGI (MALME-3M melanoma) greater than 100 µM. The TGI (T-47D breast) was greater than 100 µM, the TGI (K-562 leukemia) was greater than 100 µM and the TGI (PC-3 prostate) was greater than 100 µM.
With Clc1cc2c(cc1Cl)CC(NCCN1CCCC1)CC2 (stereo unspecified) the TGI (KM12 colon) was 32.3 µM, the TGI (SW-620 colon) was 45.7 µM and the TGI (CCRF-CEM leukemia) was greater than 100 µM. It also gave a TGI (NCI-H522 lung) of 32.4 µM, a TGI (M14 melanoma) of 25.4 µM and a TGI (OVCAR-4 ovarian) of 35.9 µM. It also gave a TGI (MALME-3M melanoma) of 22.8 µM, a TGI (T-47D breast) of 25.5 µM and a TGI (K-562 leukemia) of 48.9 µM. The TGI (PC-3 prostate) was 30.3 µM.
NC(=O)c1c(NC(=O)c2ccccn2)sc2c1CCC(=O)C2 was tested, and the GI50 (KM12 colon) was 3.26 µM, the TGI (KM12 colon) was greater than 100 µM and the GI50 (SW-620 colon) was 0.882 µM. It also gave a TGI (SW-620 colon) greater than 100 µM, a GI50 (CCRF-CEM leukemia) of 2.02 µM and a TGI (CCRF-CEM leukemia) greater than 100 µM. The GI50 (NCI-H522 lung) was 0.821 µM, the TGI (NCI-H522 lung) was 8.65 µM and the GI50 (M14 melanoma) was 3.88 µM. The TGI (M14 melanoma) was greater than 100 µM, the GI50 (T-47D breast) was 2.48 µM and the TGI (T-47D breast) was greater than 100 µM. It also gave a GI50 (K-562 leukemia) of 1.54 µM, a TGI (K-562 leukemia) greater than 100 µM and a TGI (PC-3 prostate) greater than 100 µM.
CCOC(=O)C(NC(=O)c1ccco1)(Nc1nc2ccc(OCC)cc2s1)C(F)(F)F (stereo unspecified) was tested, and the TGI (KM12 colon) was 98.3 µM, the TGI (SW-620 colon) was greater than 100 µM and the TGI (CCRF-CEM leukemia) was greater than 100 µM. It also gave a TGI (NCI-H522 lung) greater than 100 µM, a TGI (M14 melanoma) greater than 100 µM and a TGI (OVCAR-4 ovarian) greater than 100 µM. The TGI (MALME-3M melanoma) was greater than 100 µM, the TGI (T-47D breast) was greater than 100 µM and the TGI (K-562 leukemia) was greater than 100 µM. It also gave a TGI (PC-3 prostate) of 93 µM.
COc1ccc(C(=O)/C=C/c2cccc([N+](=O)[O-])c2)c(OC)c1 was tested, and the GI50 (KM12 colon) was 1.61 µM, the TGI (KM12 colon) was 7.65 µM and the GI50 (SW-620 colon) was 1.2 µM. The TGI (SW-620 colon) was 2.54 µM, the GI50 (CCRF-CEM leukemia) was 1.39 µM and the TGI (CCRF-CEM leukemia) was 4.79 µM. It also gave a GI50 (NCI-H522 lung) of 1.6 µM, a TGI (NCI-H522 lung) greater than 50 µM and a GI50 (M14 melanoma) of 1.62 µM. For the same molecule, the TGI (M14 melanoma) was greater than 50 µM, the GI50 (OVCAR-4 ovarian) was 2.11 µM and the TGI (OVCAR-4 ovarian) was greater than 50 µM. The GI50 (MALME-3M melanoma) was 3.56 µM, the TGI (MALME-3M melanoma) was greater than 50 µM and the GI50 (T-47D breast) was 1.93 µM. The TGI (T-47D breast) was greater than 50 µM, the GI50 (K-562 leukemia) was 0.999 µM and the TGI (K-562 leukemia) was 3.08 µM.
Molecule O=C(O)C1C2CCC(O2)C1C(=O)Nc1cccc2cccnc12 (stereo unspecified) has a TGI (KM12 colon) greater than 100 µM, a TGI (SW-620 colon) greater than 100 µM and a TGI (NCI-H522 lung) greater than 100 µM. It also gave a TGI (M14 melanoma) greater than 100 µM, a TGI (OVCAR-4 ovarian) greater than 100 µM and a TGI (MALME-3M melanoma) greater than 100 µM. It also gave a TGI (T-47D breast) greater than 100 µM, a TGI (K-562 leukemia) greater than 100 µM and a TGI (PC-3 prostate) greater than 100 µM.
For CC(=O)C1=C(C)N(c2ccc(C)cc2)C2(O)C=CC(=O)C3C(=O)N(c4ccccc4)C(=O)C132 (stereo unspecified), the TGI (KM12 colon) was 74.2 µM, the TGI (SW-620 colon) was 22.7 µM and the TGI (CCRF-CEM leukemia) was greater than 100 µM. It also gave a TGI (NCI-H522 lung) of 22 µM, a TGI (M14 melanoma) greater than 100 µM and a TGI (OVCAR-4 ovarian) of 41.2 µM. It also gave a TGI (MALME-3M melanoma) of 46.6 µM, a TGI (T-47D breast) of 54.6 µM and a TGI (K-562 leukemia) of 66.3 µM. The TGI (PC-3 prostate) was 62.3 µM.
Molecule CCC1CN(C(=O)c2ccccc2)C(Cc2c[nH]c3ccccc23)C(=O)C1CC(=O)OC (stereo unspecified) has a TGI (KM12 colon) greater than 100 µM, a TGI (SW-620 colon) greater than 100 µM and a TGI (CCRF-CEM leukemia) greater than 100 µM. The TGI (NCI-H522 lung) was greater than 100 µM, the TGI (M14 melanoma) was greater than 100 µM and the TGI (OVCAR-4 ovarian) was greater than 100 µM. It also gave a TGI (MALME-3M melanoma) greater than 100 µM, a TGI (T-47D breast) greater than 100 µM and a TGI (K-562 leukemia) greater than 100 µM. It also gave a TGI (PC-3 prostate) greater than 100 µM.
For COc1nc(C#CC2(O)CCCCC2)nc(OC)n1, the TGI (KM12 colon) was 30.2 µM, the TGI (SW-620 colon) was 24.1 µM and the TGI (CCRF-CEM leukemia) was 48.6 µM. The TGI (NCI-H522 lung) was 21.9 µM, the TGI (M14 melanoma) was 38.3 µM and the TGI (OVCAR-4 ovarian) was 4.44 µM. It also gave a TGI (MALME-3M melanoma) of 15.3 µM, a TGI (T-47D breast) greater than 100 µM and a TGI (K-562 leukemia) greater than 100 µM. It also gave a TGI (PC-3 prostate) of 18.5 µM.
For CCn1c(-c2ccc(N=NNc3ccc(-c4n[nH]c(=S)n4CC)cc3)cc2)n[nH]c1=S, the TGI (KM12 colon) was 5.93 µM, the TGI (SW-620 colon) was greater than 100 µM and the TGI (CCRF-CEM leukemia) was 61.6 µM. The TGI (NCI-H522 lung) was 5.71 µM, the TGI (M14 melanoma) was 8.2 µM and the TGI (OVCAR-4 ovarian) was 5.41 µM. The TGI (MALME-3M melanoma) was 7.75 µM, the TGI (T-47D breast) was 4.35 µM and the TGI (K-562 leukemia) was greater than 100 µM. For the same molecule, the TGI (PC-3 prostate) was 8.34 µM.
O=c1[nH]nc(NNc2ccccc2)c2nnn(C3CCCCC3)c12 was tested, and the TGI (KM12 colon) was greater than 100 µM, the TGI (CCRF-CEM leukemia) was greater than 100 µM and the TGI (M14 melanoma) was greater than 100 µM. The TGI (OVCAR-4 ovarian) was greater than 100 µM, the TGI (MALME-3M melanoma) was greater than 100 µM and the TGI (K-562 leukemia) was greater than 100 µM. The TGI (PC-3 prostate) was greater than 100 µM.

Source: PubChem BioAssay (NCI)
